pIC50: −log10 of the molar value. Read-outs that look alike come from different tables or passages of the source.
Columns and labels:
Experiment in all cases: Dose-response to palbociclib, CyQUANT NF cell proliferation after 4 days
Assay type in all cases: cell-based
MCF7 = details: Homo sapiens; parental sensitive MCF7
Description: (§1) The inventors next generated experimental cell lines models with acquired resistance to palbociclib derived from commercially available breast cancer cell lines MCF7 and T47D (ATCC), which were cultured according to supplier's recommendation. An MCF7-derived palbociclib-resistant (MCF7-PR) and a T47D-derived palbociclib-resistant (T47D-PR) cell lines were established by treating MCF7 and T47D with palbociclib for 6 months, starting at low concentration (1 nM) and increasing them at each passage until reaching 1 µM). MCF7-PR and T47D-PR cells were maintained in complete medium with 500 nM of palbociclib. The IC50 of sensitive MCF7 and T47D as well as derived palbociclib-resistant MCF7-PR and T47D-PR cell lines was evaluated by seeding 5000 tumor cells per well in 96-well plates and adding the following day increasing doses of Palbociclib. Proliferation was assessed after 4 days with CyQUANT NF Cell Proliferation (ThermoFisher Scientific) according to manufacturer's instructions. Fluorescence measurements were taken using FL800 Fluorescence plate reader with excitation at 485 nm and emission detection at 520 nm. Surviving fraction was calculated relative to untreated control cells using the formula: % Cell viability = (treated/untreated)*100 and IC^50 values were calculated with a non-linear regression model using GraphPad PRISM software.

T47D = details: Homo sapiens; parental sensitive T47D
Description: as §1

T47D-PR = details: palbociclib-resistant T47D-PR
Description: as §1

ZR751 = details: Homo sapiens, ZR-75-1
Description: as §1
(§2) Next, FGFR4-depletion was induced by means of stable shRNA expression and confirmed by Western blotting using standard procedures. Specifically, sensitive MCF7 and resistant MCFR7-PR and ZR751 were infected with two independent stable FGFR4 shRNAs (shFGFR4#1 and shFGFR4#2) and, as a control, a non-targeting scramble shRNA (shControl) (Fig.2C-2D). Response to palbociclib was evaluated by incubating the cells with increasing concentrations of palbociclib as described above.
In order to validate FGFR4 as a driver of CDK4/6i resistance, the inventors developed ZR751 cells that overexpressed wild-type FGFR4 (FGFR4wt) or constitutively active FGFR4 (FGFR4 Y367C) (Roidl et al., 2010). Control cells were infected with the backbone vector expressing red fluorescent protein (RFP).

MCF7-PR = test system: MCF7-PR
Description: as §1, §2

pIC50 (T47D-PR): 5.74
pIC50 (MCF7-PR; FGFR4 knockdown shFGFR4#1, read-out: IC50 MCF7-PR shFGFR4#1): 6.24
pIC50 (MCF7-PR; FGFR4 knockdown shFGFR4#2, read-out: IC50 MCF7-PR shFGFR4#2): 6.35
pIC50 (MCF7-PR; non-targeting scramble shRNA, read-out: IC50 MCF7-PR shControl): 5.81
pIC50 (MCF7-PR; palbociclib-resistant MCF7-PR, read-out: IC50 MCF7-PR): 5.70
SMILES: CC(=O)c1c(C)c2cnc(Nc3ccc(N4CCNCC4)cn3)nc2n(C2CCCC2)c1=O [palbociclib]
pIC50 (MCF7): 6.60
pIC50 (T47D): 7.30
pIC50 (ZR751; FGFR4 knockdown shFGFR4#1, read-out: IC50 ZR751 shFGFR4#1): 7.10
pIC50 (ZR751; FGFR4 knockdown shFGFR4#2, read-out: IC50 ZR751 shFGFR4#2): 6.90
pIC50 (ZR751; control cells with backbone vector expressing RFP, read-out: IC50 ZR751 RFP): 6.45
pIC50 (ZR751; non-targeting scramble shRNA, read-out: IC50 ZR751 shControl): 5.42
pIC50 (ZR751; overexpressing wild-type FGFR4, read-out: IC50 ZR751 FGFR4wt): ~2.38
